In patent US8277815B2, “Pharmaceutical composition comprising an antigen” (Intercell AG, priority 1999, dated 2012):

Key:
antigen specific T cells = assay: IFN-γ-ELISPOT of lymph node lymphocytes 10 days after subcutaneous vaccination; type: in vivo, C57BL/6 mice; settings: lymph node lymphocytes of TRP-2 vaccinated mice; negative control with the same MHC restriction
Procedure: Experimental Groups (5 Mice Each) • 1) TRP-2 peptide • 2) TRP-2 peptide+HGH • 3) TRP-2 peptide+pR 60 • 4) TRP-2 peptide+pR 60+HGH
On day 0 mice were injected subcutaneously with a total volume of 100 μl containing the above mentioned compounds. Animals were sacrificed 10 days after injection of the vaccine and mesenteric and inguinal lymph nodes harvested. Results are illustrated in FIG. 1.
Lymphocytes were prepared from lymph nodes as follows: cells were passed through a 70 μm sieve and washed twice with DMEM medium (GIBCO BRL) containing 2.5% fetal calf serum (FCS; SIGMA chemicals). Cells were adjusted to 10^7 cells/ml in complete medium (DMEM+10% FCS). IFN-γ-ELISPOT assays were carried out in triplicate as described (Miyahira et al., 1995). This method is a widely used procedure allowing the quantification of antigen-specific T cells. Lymphocytes were restimulated with TRP-2 peptide or with an ovalbumin-derived peptide (SIINFEKL) with the same MHC restriction serving as negative control.
Spots representing single T cells specific for the peptide used for re-stimulation (and immunization) were counted. The number of background spots observed with cells incubated without peptide(s) was subtracted from all samples.

[1] = tested on: tick-born encephalitis (TBE) virus; settings: in vivo; cited from earlier work

SIINFEKL [ovalbumine derived peptide]
spots on restimulation with the ovalbumin-derived control peptide (IFN-γ-ELISPOT) (antigen specific T cells): no spots detected

HGH: Human growth hormone, pituitary-derived factor; SAIZEN, Laboratoires Serono used in Example 1
vaccine efficacy / protection of animals [1]: potentiated vaccine efficacy and led to the protection of animals after only one injection of the vaccine
